Test results reported in patent publication US20060069132A1, “Azolecarboxamide herbicides” (priority 2004, published 2006).

Experiments:
giant foxtail = assay: Test B pre-/postemergence herbicide test; type: in vivo, Setaria faberi
Outline: (§1)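 Visual rating, 0 (no effect) to 100 (complete control), versus untreated controls after 13–15 d in greenhouse. Pre- and postemergence applications (postemergence plants 2–18 cm, 1–4 leaves); flooded paddy arm at 2-leaf stage. Compounds in non-phytotoxic solvent plus surfactant.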

barnyardgrass [1] = assay: Test B flooded paddy test; type: in vivo, Echinochloa crus-galli; details: 1000 g ai/ha, scale 0 to 100 (0 no effect, 100 complete control)
Outline: (§2)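 After treating 2-leaf paddy plants or 2–18 cm postemergence plants (1 to 4 leaves) with formulated chemical, researchers kept them in a greenhouse for 13–15 days. Effects were judged visually versus controls: 0 indicates none, 100 total control.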

corn = assay: Test B pre-/postemergence herbicide test; type: in vivo, Zea mays
Outline: as §1

pigweed = assay: Test B pre-/postemergence herbicide test; type: in vivo, Amaranthus retroflexus
Outline: as §1

blackgrass = assay: Test B postemergence herbicide test; type: in vivo, Alopecurus myosuroides
Outline: as §2

cocklebur = assay: Test B pre-/postemergence herbicide test; type: in vivo, Xanthium strumarium
Outline: (§3)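 Flooded paddy rice and barnyardgrass were treated at the 2-leaf stage; upland plantings received compound either on sown seed or on 1- to 4-leaf seedlings. All were kept 13–15 days in a greenhouse and scored visually, 0–100, relative to untreated plants.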

lambsquarters = assay: Test B pre-/postemergence herbicide test; type: in vivo, Chenopodium album
Outline: as §1

ducksalad = assay: Test B flooded paddy test; type: in vivo, Heteranthera limosa; details: 1000 g ai/ha, scale 0 to 100 (0 no effect, 100 complete control)
Outline: as §2

barnyardgrass [2] = assay: Test B pre-/postemergence herbicide test; type: in vivo, Echinochloa crus-galli
Outline: as §3

morningglory = assay: Test B pre-/postemergence herbicide test; type: in vivo, Ipomoea coccinea
Outline: as §3

large crabgrass = assay: Test B pre-/postemergence herbicide test; type: in vivo, Digitaria sanguinalis
Outline: as §1

wild oat = assay: Test B postemergence herbicide test; type: in vivo, Avena fatua
Outline: (§4)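 Plants grow to 1- to 4-leaf stage (2–18 cm) for postemergence spraying, or to 2-leaf stage for the paddy test. Formulated compound is applied. Greenhouse holding lasts 13–15 days. Response is scored visually relative to controls, 0 no effect to 100 complete control; a dash means no result.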

[3] = test system: small flower umbrella sedge; assay: Test B flooded paddy test; type: in vivo, Cyperus difformis; details: 1000 g ai/ha, scale 0 to 100 (0 no effect, 100 complete control)
Outline: as §2

Surinam grass = assay: Test B pre-/postemergence herbicide test; type: in vivo, Urochloa decumbens
Outline: as §1

wheat = assay: Test B postemergence herbicide test; type: in vivo, Triticum aestivum; design: key to Wheat plant response rating: 0 = no effect, 100 = complete control
Outline: as §4

rice = assay: Test B flooded paddy test; type: in vivo, Oryza sativa; details: 1000 g ai/ha, scale 0 to 100 (0 no effect, 100 complete control)
Outline: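 Read-out: visual comparison with controls, scored 0 to 100, where 100 means complete control and 0 no effect. Formulated chemicals were applied postemergence to plants 2–18 cm tall (1- to 4-leaf), or to flooded-paddy plants at the 2-leaf stage, then held 13 to 15 days under glass.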

[4] = 125 g ai/ha; 0 = no effect, 100 = complete control; preemergence
[5] = 500 g ai/ha; visual rating, 0 = no effect, 100 = complete control; preemergence
[6] = postemergence, 125 g ai/ha; visual rating, scale 0 (no effect) to 100 (complete control)
[7] = postemergence, 500 g ai/ha; scale 0 to 100, 0 is no effect, 100 is complete control
[8] = 125 g ai/ha; visual rating, scale 0 (no effect) to 100 (complete control); postemergence

## C=CCN(C)C(=O)c1cccc(NC(=O)c2cc(C(C)(C)C)nn2CC)c1 [Compound 285]
Giant foxtail; [4]
  Foxtail, Giant plant response rating (0 to 100 scale): 10
Giant foxtail; [5]
  Plant response rating, Foxtail, Giant: 80
Giant foxtail; [6]
  Foxtail, Giant plant response rating: 30
Giant foxtail; [7]
  Foxtail, Giant plant response rating: 50
Barnyardgrass [1]
  Barnyardgrass plant response rating: 90
corn; [4]
  Corn plant response rating (0 to 100 scale): 0
corn; [5]
  Plant response rating, Corn: 40
corn; [6]
  Corn plant response rating: 10
corn; [7]
  Corn plant response rating: 10
pigweed; [4]
  Pigweed plant response rating (0 to 100 scale): 100
pigweed; [5]
  Plant response rating, Pigweed: 100
pigweed; [6]
  Pigweed plant response rating: 70
pigweed; [7]
  Pigweed plant response rating: 80
blackgrass; [6]
  Blackgrass plant response rating: 30
blackgrass; [7]
  Blackgrass plant response rating: 30
cocklebur; [4]
  Cocklebur plant response rating (0 to 100 scale): 0
cocklebur; [5]
  Plant response rating, Cocklebur: 0
cocklebur; [6]
  Cocklebur plant response rating: 10
cocklebur; [7]
  Cocklebur plant response rating: 30
lambsquarters; [4]
  Lambsquarters plant response rating (0 to 100 scale): 100
lambsquarters; [5]
  Plant response rating, Lambsquarters: 100
lambsquarters; [6]
  Lambsquarters plant response rating: 40
lambsquarters; [7]
  Lambsquarters plant response rating: 70
ducksalad
  Ducksalad plant response rating: 90
Barnyardgrass [2]; [4]
  Barnyardgrass plant response rating (0 to 100 scale): 30
Barnyardgrass [2]; [5]
  Plant response rating, Barnyardgrass: 90
Barnyardgrass [2]; [6]
  Barnyardgrass plant response rating: 0
Barnyardgrass [2]; [7]
  Barnyardgrass plant response rating: 10
morningglory; [4]
  Morningglory plant response rating (0 to 100 scale): 0
morningglory; [5]
  Plant response rating, Morningglory: 10
morningglory; [6]
  Morningglory plant response rating: 20
morningglory; [7]
  Morningglory plant response rating: 30
Large crabgrass; [4]
  Crabgrass, Large plant response rating (0 to 100 scale): 20
Large crabgrass; [5]
  Plant response rating, Crabgrass, Large: 70
Large crabgrass; [6]
  Crabgrass, Large plant response rating: 0
Large crabgrass; [7]
  Crabgrass, Large plant response rating: 20
Wild oat; [6]
  Oat, Wild plant response rating: 40
Wild oat; [7]
  Oat, Wild plant response rating: 50
[3]
  Sedge, Umbrella plant response rating: 90
Surinam grass; [4]
  Surinam Grass plant response rating (0 to 100 scale): 10
Surinam grass; [5]
  Plant response rating, Surinam Grass: 70
Surinam grass; [6]
  Surinam Grass plant response rating: 10
Surinam grass; [7]
  Surinam Grass plant response rating: 30
wheat; [6]
  Wheat plant response rating: 30
wheat; [7]
  Wheat plant response rating: 40
rice
  Rice plant response rating: 80

## CCc1nn(C(C)(C)C)cc1C(=O)Nc1cc(C(=O)N(C)C)ccn1 [Compound 293]
Giant foxtail; [4]
  Foxtail, Giant plant response rating (0 to 100 scale): 60
Giant foxtail; [8]
  Foxtail, Giant plant response rating: 20
Giant foxtail; [5]
  Plant response rating, Foxtail, Giant: 100
Giant foxtail; [7]
  Foxtail, Giant plant response rating: 30
Barnyardgrass [1]
  Barnyardgrass plant response rating: 90
corn; [4]
  Corn plant response rating (0 to 100 scale): 70
corn; [8]
  Corn plant response rating: 10
corn; [5]
  Plant response rating, Corn: 100
corn; [7]
  Corn plant response rating: 30
pigweed; [4]
  Pigweed plant response rating (0 to 100 scale): 10
pigweed; [8]
  Pigweed plant response rating: 10
pigweed; [5]
  Plant response rating, Pigweed: 100
pigweed; [7]
  Pigweed plant response rating: 40
blackgrass; [8]
  Blackgrass plant response rating: 30
blackgrass; [7]
  Blackgrass plant response rating: 30
cocklebur; [4]
  Cocklebur plant response rating (0 to 100 scale): 60
cocklebur; [8]
  Cocklebur plant response rating: 20
cocklebur; [5]
  Plant response rating, Cocklebur: 90
cocklebur; [7]
  Cocklebur plant response rating: 30
lambsquarters; [4]
  Lambsquarters plant response rating (0 to 100 scale): 80
lambsquarters; [8]
  Lambsquarters plant response rating: 50
lambsquarters; [5]
  Plant response rating, Lambsquarters: 100
lambsquarters; [7]
  Lambsquarters plant response rating: 70
ducksalad
  Ducksalad plant response rating: 80
Barnyardgrass [2]; [4]
  Barnyardgrass plant response rating (0 to 100 scale): 90
Barnyardgrass [2]; [8]
  Barnyardgrass plant response rating: 0
Barnyardgrass [2]; [5]
  Plant response rating, Barnyardgrass: 100
Barnyardgrass [2]; [7]
  Barnyardgrass plant response rating: 10
morningglory; [4]
  Morningglory plant response rating (0 to 100 scale): 40
morningglory; [8]
  Morningglory plant response rating: 30
morningglory; [5]
  Plant response rating, Morningglory: 100
morningglory; [7]
  Morningglory plant response rating: 70
Large crabgrass; [4]
  Crabgrass, Large plant response rating (0 to 100 scale): 100
Large crabgrass; [8]
  Crabgrass, Large plant response rating: 0
Large crabgrass; [5]
  Plant response rating, Crabgrass, Large: 100
Large crabgrass; [7]
  Crabgrass, Large plant response rating: 20
Wild oat; [8]
  Oat, Wild plant response rating: 30
Wild oat; [7]
  Oat, Wild plant response rating: 50
[3]
  Sedge, Umbrella plant response rating: 80
Surinam grass; [4]
  Surinam Grass plant response rating (0 to 100 scale): 90
Surinam grass; [8]
  Surinam Grass plant response rating: 10
Surinam grass; [5]
  Plant response rating, Surinam Grass: 100
Surinam grass; [7]
  Surinam Grass plant response rating: 20
wheat; [8]
  Wheat plant response rating: 20
wheat; [7]
  Wheat plant response rating: 30
rice
  Rice plant response rating: 90
